Experimental findings from patent publication US20240091242A1, “LIPIDS THAT REDUCE LUNG DAMAGE, IMPROVE PULMONARY FUNCTION AND DECREASE PRO-INFLAMMATORY CYTOKINES” (Signpath Pharma, Inc., priority 2021, published 2024) are described below.

“Also recorded” adds a separate entry of the source.

One data set deals with murine LPS ARDS model. The experiment in a line: Body weight and lung weight, murine LPS ARDS model. The data set is classed as in vivo, mouse. As to conditions: for body weight loss: 72-hour study. On the procedure: C57B16/N mice were obtained from Charles River Laboratories (Montreal, Quebec). Male mice, 20-25 g of body weight, were used throughout the studies. Animals were housed in specific pathogen[…]free conditions, and all experiments were approved by Institutional Animal Care and Use Committee (IPST_SL20200402-1). Animal studies are reported in compliance with […] guidelines.
In the ARDS group, mice received Escherichia coli O111:B4 lipopolysaccharide (50 μg in 0.05 mL saline, i.t.), while, in the control group, the animals received an instillation of saline (0.05 mL, i.t.). For intratracheal instillation, mice were slightly anesthetized with isoflurane.
The lipid SPPCT-800 was dissolved in water (low dose—2 mg/ml; high dose—20 mg/ml). For the 24-hour study, two treatment approaches were used. Mice received a single dose of SPPCT-800 (200 mg/kg, per gavage) as prevention (30 minutes before the LPS instillation), or as a single dose of either 20 mg/kg or 200 mg/kg as therapy (3-hour after the LPS instillation). For the 72-hour study, mice received a total of 8 treatments of SPPCT-800 (200 mg/kg) starting at 3-hour after the LPS instillation. Disease progression in mice was assessed by the evaluation of pulmonary functions, blood oxygen saturation, and body weight change. On the terminal day of each study (24 hours or 72 hours), measurement of cytokine levels in the plasma and BALF, and histopathology evaluations were done.
Statistical Analysis. Results are expressed as means±SEM. Comparisons were made on normally distributed data using ANOVA, followed by a Fisher post hoc test to assess the difference between LPS+vehicle group with GraphPad Prism Software version 8.0 (San Diego, CA, USA). Differences were considered statistically significant when P values were less than 0.05. (* Shown difference versus Sham animals and # shown difference versus LPS+Vehicle group. * Means P<0.05, ** P<0.01, *** P<0.001 while # means P<0.05, ##P<0.01 and ###P<0.001).

Data set [1] can be described thus: Toxicity (non-toxic dose). As to conditions: in vivo.
Data set [2] in a line: Detectable activity after a single dose. The data set is classed as in vivo.

Regarding `CCCCCCCCCCCCCC(=O)OCC(COP(=O)([O-])OCC(COC(=O)CCC)OC(=O)CCC)OC(=O)CCCCCCCCCCCCC.CCCCCCCCCCCCCC(=O)OCC(COP(=O)([O-])OCC(COC(=O)CCC)OC(=O)CCC)OC(=O)CCCCCCCCCCCCC.[Mg+2]` (stereo not drawn) [SPPCT-800], the “body weight loss versus LPS (in words)” value with murine LPS ARDS model (48 hours and 72 hours after LPS treatment) was “significantly reduced”. For the same compound, the “wet lung weight/dry lung ratio” value in the data set on murine LPS ARDS model (72 hours) is given as “decreased”. Moreover, in the data set with murine LPS ARDS model (72 hours, P<0.05), the “lung index (lung weight/body weight×100)” value is listed as “reduced; also recorded: significantly decreased”. The lung weight result in the data set on murine LPS ARDS model (animals sacrificed at 72 hours, P=0.1100) is “tended to reduce”. The body weight loss came out at 14% in the data set with murine LPS ARDS model (at 24 hours after LPS); 14% with murine LPS ARDS model (at 48 hours after LPS, P<0.05 vs untreated LPS group); 8% in the data set on murine LPS ARDS model (at 72 hours after LPS, P<0.05 vs untreated LPS group). Besides, the non-toxic dose entry in data set [1] is given as “up to 800 mg/kg per day”. The “single dose with detectable activity” value in data set [2] came out at 1 mg/kg.
